pIC50: −log10 of the molar value. Where two headings read alike, the source gives them in different places.
Tests used:
[1] = Pharmacokinetic study in mice; type: in vivo; conditions: for AUC / clearance / half-life / Vd / Cmax: female, BALB/c (BALB/cAnN CrlCrlj), mouse, plasma; for Vd: read-out: Vdss
In short: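 Female 7-week-old BALB/c mice were dosed 1 mg/kg intravenously (50% PEG, 0.01 mol/L HCl) or 10 mg/kg orally (0.5% methylcellulose). Plasma was sampled from 5 or 15 min up to 24 hr, and concentrations were quantified by LC-MS against an internal-standard calibration curve.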

[2] = Membrane permeability test (PAMPA); type: in vitro ADME
In short: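 Donor compartment held compound in system solution over a GIT Lipid-0 membrane, with sink buffer on the acceptor side; incubation 4 h at 37° C. Donor and acceptor concentrations were read by UV (190-500 nm), or by LC-MS for weakly absorbing compounds, and Pe (10^−6 cm/sec) was calculated.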

[3] = tested on: Kuramochi cells; experiment: Cell proliferation inhibition experiment using Kuramochi cells; type: cell-based; conditions: 144 h, cultured for 6 days, CellTiter-Glo
Experimental: Kuramochi cells (derived from ovarian cancer) were obtained from JCRB (Japanese Collection of Research Bioresources) cell bank. Kuramochi cells were cultured in RPMI-1640 medium containing 10% fetal bovine serum and 1% penicillin/streptomycin under conditions of 37° C. and 5% CO2.
(§1) 500 cells per well were seeded in a 384-well plate. One day after seeding, Examples 3, 7, 9, 10, 11, 20, 23 to 25, and 30 to 34 were added so that the final concentration of DMSO was 0.1%, and the cells were cultured for 6 days. After the culture was completed, the cell viability was measured using CellTiter-Glo Luminescent Cell Viability Assay (Promega, G7570).

[4] = tested on: RMGI cells; experiment: Cell proliferation inhibition experiment using RMGI cells; type: cell-based; conditions: Homo sapiens, RMG-I, 144 h, cultured for 6 days, CellTiter-Glo
Experimental: RMGI cells (derived from ovarian cancer) were obtained from JCRB cell bank. RMGI cells were cultured in Ham's F12 medium containing 10% fetal bovine serum and 1% penicillin/streptomycin under conditions of 37° C. and 5% CO2.
as §1, with “200” for “500”, “20, and” for “20,”, “25” for “25, and 30 to 34”

[5] = pH 5.0, 37° C., read-out: pH 5.0 Pe
[6] = pH 7.4, 37° C., read-out: pH 7.4 Pe

Row | AUC ([1]; intravenous, 1 mg/kg) [ng·h/mL] | clearance ([1]; intravenous, 1 mg/kg) [mL/min/kg] | half-life ([1]; intravenous, 1 mg/kg) [h] | Vd ([1]; intravenous, 1 mg/kg) [L/kg] | AUC ([1]; oral, 10 mg/kg) [ng·h/mL] | Cmax ([1]; oral, 10 mg/kg) [ng/mL] | BA ([1]; oral, 10 mg/kg) [%] | Papp at 4 h [2, 5] [×10⁻⁶ cm/s] | Papp at 4 h [2, 6] [×10⁻⁶ cm/s] | Structure (SMILES) | pIC50 [3] | pIC50 [4]
1 | 313 | 53 | 1.15 | 2.1 | 1470 | 1470 | 47.0 | 1.6 | 8.2 | CN1CC(N(Cc2ccc(F)cn2)C(=O)CN2C(=O)N[C@]3(C[C@@H](F)c4cc(-c5cnn(C6COC6)c5)ccc43)C2=O)(C(F)(F)F)C1 [Example 24, 2-{(1′S,3′R)-3′-fluoro-5′-[1-(oxetan-3-yl)-1H-pyrazol-4-yl]-2,5-dioxo-2′,3′-dihydrospiro[imidazolidine-4,1′-inden]-1-yl}-N-[(5-fluoropyridin-2-yl)methyl]-N-[1-methyl-3-(trifluoromethyl)azetidin-3-yl]acetamide] | 6.40 | 7.43
2 | 1690 | 9.8 | 4.1 | 1.8 | 8400 | 8140 | 49.7 | 3.2 | 7 | O=C1N[C@]2(C[C@@H](F)c3cc(-c4cnn(C5CCN(C6COC6)CC5)c4)ccc32)C(=O)N1CC(=O)N(Cc1ccc(F)cn1)C1(C(F)(F)F)COC1 [Example 23, 2-[(1′S,3′R)-3′-fluoro-5′-{1-[1-(oxetan-3-yl)piperidin-4-yl]-1H-pyrazol-4-yl}-2,5-dioxo-2′,3′-dihydrospiro[imidazolidine-4,1′-inden]-1-yl]-N-[(5-fluoropyridin-2-yl)methyl]-N-[3-(trifluoromethyl)oxetan-3-yl]acetamide] | 6.23 | 7.27
3 | 819 | 19.9 | 1.41 | 1.3 | 8240 | 6140 | 100.6 | 3 | 5.1 | O=C1N[C@]2(C[C@@H](F)c3cc(-c4cnn(C5CN(C6COC6)C5)c4)ccc32)C(=O)N1CC(=O)N(Cc1ccc(F)cn1)C1(C(F)(F)F)COC1 [Example 7, 2-[(1′S,3′R)-3′-fluoro-5′-{1-[1-(oxetan-3-yl)azetidin-3-yl]-1H-pyrazol-4-yl}-2,5-dioxo-2′,3′-dihydrospiro[imidazolidine-4,1′-inden]-1-yl]-N-[(5-fluoropyridin-2-yl)methyl]-N-[3-(trifluoromethyl)oxetan-3-yl]acetamide] | 6.53 | 7.46

Row | Structure (SMILES) | AUC ([1]; intravenous, 1 mg/kg) [ng·h/mL] | clearance ([1]; intravenous, 1 mg/kg) [mL/min/kg] | half-life ([1]; intravenous, 1 mg/kg) [h] | Vd ([1]; intravenous, 1 mg/kg) [L/kg] | AUC ([1]; oral, 10 mg/kg) [ng·h/mL] | Cmax ([1]; oral, 10 mg/kg) [ng/mL] | BA ([1]; oral, 10 mg/kg) [%] | Papp at 4 h [2, 5] [×10⁻⁶ cm/s] | Papp at 4 h [2, 6] [×10⁻⁶ cm/s] | pIC50 [3] | pIC50 [4]
4 | CN1CC(N(Cc2ccc(F)cn2)C(=O)CN2C(=O)N[C@]3(C[C@@H](F)c4cc(-c5cnn(C)c5)ccc43)C2=O)(C(F)(F)F)C1 [Example 20, 2-[(1′S,3′R)-3′-fluoro-5′-(1-methyl-1H-pyrazol-4-yl)-2,5-dioxo-2′,3′-dihydrospiro[imidazolidine-4,1′-inden]-1-yl]-N-[(5-fluoropyridin-2-yl)methyl]-N-[1-methyl-3-(trifluoromethyl)azetidin-3-yl]acetamide] | 528 | 31.1 | 1.34 | 1.6 | 1520 | 1340 | 28.8 | 7.8 | 21.9 | 6.49 | 7.37
5 | CN1CC(N(Cc2ccc(F)cc2)C(=O)CN2C(=O)N[C@]3(C[C@@H](F)c4cc(-c5cnn(C)c5)ccc43)C2=O)(C(F)(F)F)C1 [Example 10, 2-[(1′S,3′R)-3′-fluoro-5′-(1-methyl-1H-pyrazol-4-yl)-2,5-dioxo-2′,3′-dihydrospiro[imidazolidine-4,1′-inden]-1-yl]-N-[(4-fluorophenyl)methyl]-N-[1-methyl-3-(trifluoromethyl)azetidin-3-yl]acetamide] | 491 | 33.5 | 1.16 | 1.8 | 3480 | 3240 | 70.8 | 23.9 | 28.6 | 7.18 | 8.22

Reference: patent publication US20250257055A1, “TERTIARY AMIDE DERIVATIVES SUBSTITUTED WITH 4-MEMBERED RING STRUCTURE” (Sumitomo Pharma Co., Ltd., priority 2024, published 2025)
